Assay results reported in patent US20060149064A1, “Process to prepare malayamycin derivatives” (priority 2003, published 2006).

Legend:
[1] = system: Stagonospora nodorum (LEPTNO); assay: Foliar protectant test against Stagonospora nodorum (LEPTNO) on wheat; format: in vivo; settings: 100 ppm foliar spray on wheat; inoculated one day after application; banded assessment
Procedure: (§1) This Example illustrates the fungicidal properties of certain of the novel compounds of formula (I). The compounds were tested against a variety of foliar fungal diseases of plants. The technique employed was as follows. Plants were grown on an artificial, cellulose based growing medium. The test compounds were individually diluted in reverse osmosis water to a final concentration of 100 ppm in water (that is, 1 mg of compound in a final volume of 10 ml) immediately before use. TWEEN 20 (at a final concentration of 0.05% by volume) was added with the water to improve retention of the spray deposit. TWEEN is a registered trade mark. The compounds were applied to the foliage of the test plants by spraying the plant to maximum droplet retention. […] After chemical application and inoculation, the plants were incubated under high humidity conditions (except those inoculated with Blumeria graminis f. sp. tritici) and then put into an appropriate environment to allow infection to proceed until the disease was ready for assessment. […] However, each individual disease was assessed after the same time period for all compounds. […] The disease level present (the percentage leaf area covered by actively sporulating disease) was assessed visually. For each treatment, the assessed values for all its replicates were meaned to provide mean disease values. Untreated control plants were assessed in the same manner. […]

[2] = system: Puccinia triticina (PUCCRT); assay: Foliar protectant test against Puccinia triticina (PUCCRT) on wheat; format: in vivo; settings: 100 ppm foliar spray on wheat; inoculated one day after application; banded assessment
Procedure: as §1

[3] = system: Blumeria graminis f. sp. tritici (ERYSGT); assay: Foliar protectant test against Blumeria graminis f. sp. tritici (ERYSGT) on wheat; format: in vivo; settings: 100 ppm foliar spray on wheat; inoculated 6 hours after application; banded assessment
Procedure: as §1

Row | SMILES | melting point | PRCO (percentage Disease Reduction from Control) LEPTNO 1 day Protectant [1] | PRCO (percentage Disease Reduction from Control) PUCCRT 1 day Protectant [2] | PRCO (percentage Disease Reduction from Control) ERYSGT 6 hour Protectant [3]
1 | CO[C@@H]1CO[C@H]2C(O)[C@H](c3c[nH]c(=O)[nH]c3=O)O[C@@H]2[C@@H]1NC(N)=O (stereo partly shown) [Compound No. 1, malayamycin A] | 158 °C (dec.) |  |  | 
2 | CO[C@H]1CO[C@H]2C(O)[C@H](c3c[nH]c(=O)[nH]c3=O)O[C@@H]2[C@@H]1NC(N)=O (stereo partly drawn) [compound 2, 6-epi-malayamycin A] |  | 45 | 100 | 50
3 | NC(=O)N[C@H]1[C@H]2O[C@@H](c3c[nH]c(=O)[nH]c3=O)C(O)[C@@H]2OC[C@H]1O (stereo partly shown) [compound 3, desmethylmalayamycin A] |  | 100 | 100 | 0
